Results taken from patent US6391917B1, “Dialkyl ureas as calcitonin mimetics” (ZymoGenetics, Inc., priority 1998, dated 2002).

Columns and labels:
[1] = test system: osteoclasts in mouse calvariae; assay: Calvaria histology (osteoclast number and size, toxicity); assay type: cell-based; conditions: mouse calvariae, PTH 1-34 treatment
Description: To confirm the findings in the calvarial bone resorption assay employing calcium release from culture mouse calvariae, selected bones were fixed in 10% neutral buffered formalin and demineralized in 5% formic acid with 5% formalin. The bones were dehydrated through an ascending series of ethanol concentrations, infiltrated in glycol methacrylate, and embedded using a JB-4 embedding kit (PolySciences, Warrington, Pa.) (Liu, et al., J. Bone Mineral Res. 5:973-82, 1990). When necessary, an alternative embedding method (paraffin embedding) was used to speed up the embedding process. Cross sections of calvariae cut at 5 μm were obtained and stained for tartrate-resistant acid phosphatase (TRAP) activity and counterstained with methyl green and thionin for cell morphology (Liu, et al., ibid.). Osteoclasts were identified by TRAP stain, multinucleation, large cell size, and irregular cell shape. The number of osteoclasts were counted from endocranial and ectocranial bone surfaces and expressed as number/mm perimeter. The size of all the osteoclasts counted was also measured using a Bone Morphometry program (Liu, et al., ibid.; Bain, et al., J. Bone Miner. Res. 8:435-42, 1993). […] This PTH-induced increase was suppressed by treatment with human calcitonin.
Calcitonin mimetic compounds were evaluated in a similar fashion for their ability to suppress PTH-induced increases in osteoclast number and size (Table 2). Cell toxicity (or death) was also evaluated by the appearance of pyknotic nuclei in a small number of bone cells. With an increased level of toxicity, a further increase in the number of these pyknotic nuclei, detachment of cells from bone surfaces, and losses of cytoplasmic stain and cell boundaries were observed. The osteocytic space also appeared empty.

[2] = target: T1, Human calcitonin receptor (Homo sapiens, UniProt P30988); assay: CRE-luciferase assay for calcitonin mimetics (Hollex-1); assay type: cell-based
T1 construct: expressed in transfected cells; host or cells: BHK-570 (Hollex-1)
T1 sequence (P30988 25-474): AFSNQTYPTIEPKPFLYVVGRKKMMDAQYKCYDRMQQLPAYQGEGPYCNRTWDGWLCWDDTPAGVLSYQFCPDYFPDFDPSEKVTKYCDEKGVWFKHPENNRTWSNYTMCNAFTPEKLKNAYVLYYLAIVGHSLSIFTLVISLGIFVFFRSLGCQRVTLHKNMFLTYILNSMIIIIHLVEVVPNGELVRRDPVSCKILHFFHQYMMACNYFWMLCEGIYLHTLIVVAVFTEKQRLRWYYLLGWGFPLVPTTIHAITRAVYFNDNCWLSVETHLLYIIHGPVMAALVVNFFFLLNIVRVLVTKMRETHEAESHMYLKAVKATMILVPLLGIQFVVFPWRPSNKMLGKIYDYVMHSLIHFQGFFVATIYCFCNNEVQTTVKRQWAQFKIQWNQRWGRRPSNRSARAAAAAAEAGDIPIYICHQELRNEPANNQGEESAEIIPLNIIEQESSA
Procedure: CRE-Luciferase Assay Method for Calcitonin Mimetics
Human calcitonin receptor-positive and receptor-negative BHK-570 (Baby Hamster Kidney) cell lines were maintained by serial passage in growth medium (DMEM supplemented with 10% heat-inactivated fetal calf serum (HI-FCS), 2 mM L-glutamine, 1 mM sodium pyruvate, 250 nM MTX, and 1 mg/mL G418). On the day prior to assay, cells were trypsinized, adjusted to 2.5×10^5 cells/ml in growth medium, plated in opaque white Dynatech Microlite microtiter tissue culture plates at 50 μL/well, and grown overnight to confluence (37° C., 5% CO2 atmosphere).
Test substances were prepared in DMSO or 10% DMF at 100 times the final desired assay concentration. […] Controls were included on each plate: untreated wells (basal), […], and 100 nM human calcitonin. DMSO or DMF was included in control wells at a concentration equal to that in test samples (not to exceed a final assay concentration of 2% DMSO or 0.5% DMF, with a preferred maximum of 1% DMSO or 0.1% DMF).
Plates were incubated for 3 to 8 hours (4 hours preferred) at 37° C. in an atmosphere of 5% CO2. Following induction, luciferase activity was measured using a Promega luciferase assay kit (E1500) according to the assay kit protocol (Promega Corp., Madison, Wis.). Briefly, assay medium was removed and cells were washed once with phosphate buffered saline (PBS). After the wash, 25 μl of lysis buffer was added to each well, and the plates were incubated for 15 minutes at room temperature. Fifty microliters of Luciferase Assay Substrate (Promega, Corp.) was added to each well and the plates were transferred to a Labsystems Lumiscan microtiter luminometer (Labsystems Inc., Morton Grove, Ill.). The amount of luminescence (relative light units, RLU) was determined following a 0.1 second/well integration of signal. Basal (uninduced) luciferase signal was subtracted from all measurements, and the luciferase signal induced by test samples was expressed as a percentage of the signal in the calcitonin and forskolin controls. Specificity of the luciferase induction for calcitonin receptor-positive cell lines was determined by comparing the percent control values in the calcitonin receptor-positive line (Hollex-1) to those observed in the calcitonin receptor-negative cell line (KZ10-20-48/Zem 228) and the PTH receptor-positive cell line (KZ10-20-48/PTH-20) described below. Samples inducing a signal over the basal level were selected for further characterization, see Table 1 for examples.

SMILES	PTH-induced increase in number and size of osteoclasts [1]	Luciferase induction (% of maximum luciferase induction produced by CT, 100 nM) ([2]; crude compound 6.25 μg/ml)	Luciferase induction (% of maximum luciferase induction produced by CT, 100 nM) ([2]; crude compound 12.5 μg/ml)	Luciferase induction (% of maximum luciferase induction produced by CT, 100 nM) ([2]; crude compound 25 μg/ml)	Luciferase induction (% of maximum luciferase induction produced by CT, 100 nM) ([2]; crude compound 50 μg/ml)	Luciferase induction (% of maximum luciferase induction produced by CT, 100 nM) ([2]; crude compound 3.125 μg/ml)
CC[C@H](C)[C@H](NC(=O)[C@H](C)NC(=O)[C@@H](NC(=O)[C@H](CCC(N)=O)NC(=O)[C@@H]1CCCN1C(=O)[C@H](Cc1ccccc1)NC(=O)[C@@H](NC(=O)[C@H](Cc1c[nH]cn1)NC(=O)[C@H](Cc1ccccc1)NC(=O)[C@H](CCCCN)NC(=O)[C@H](CC(N)=O)NC(=O)[C@H](Cc1ccccc1)NC(=O)[C@H](CC(=O)O)NC(=O)[C@H](CCC(N)=O)NC(=O)[C@@H](NC(=O)[C@H](Cc1ccc(O)cc1)NC(=O)[C@@H](NC(=O)CNC(=O)[C@H](CC(C)C)NC(=O)[C@H](CCSC)NC(=O)[C@@H]1CSSC[C@H](N)C(=O)NCC(=O)N[C@@H](CC(N)=O)C(=O)N[C@@H](CC(C)C)C(=O)N[C@@H](CO)C(=O)N[C@@H]([C@@H](C)O)C(=O)N1)[C@@H](C)O)[C@@H](C)O)[C@@H](C)O)[C@@H](C)O)C(=O)NCC(=O)N[C@H](C(=O)NCC(=O)N[C@@H](C)C(=O)N1CCC[C@H]1C(N)=O)C(C)C [human calcitonin, reference compound]	suppressed	–	–	–	–	–
C=CCNC(=O)[C@@H](Cc1ccc(Cl)cc1)NC(=O)Nc1cc(C(C)(C)C)ccc1C(C)(C)C [628-032]	–	25.42%	27.28%	31.34%	33.94%	–
CCNC(=O)C(Cc1cn(CC)c2ccccc12)NC(=O)Nc1cc(C(C)(C)C)ccc1C(C)(C)C (centres unmarked) [628-008]	–	2.91%	20.07%	50.93%	50.39%	−1.31%
CC(C)(C)c1ccc(C(C)(C)C)c(NC(=O)N[C@H](Cc2ccc(I)cc2)C(=O)NCc2ccccc2)c1 [628-044]	–	24.08%	29.35%	26.23%	30.14%	10.65%
C=CCNC(=O)C(Cc1ccc(OCC=C)cc1)NC(=O)Nc1cc(C(C)(C)C)ccc1C(C)(C)C (centres unmarked) [628-015]	–	14.69%	43.2%	72.17%	71.49%	1.62%
C=CCNC(=O)C(Cc1cn(CC=C)c2ccccc12)NC(=O)Nc1cc(C(C)(C)C)ccc1C(C)(C)C (centres unmarked) [628-016]	–	43.89%	76.44%	80.63%	75.76%	10.72%
CCNC(=O)[C@@H](Cc1ccc(I)cc1)NC(=O)Nc1cc(C(C)(C)C)ccc1C(C)(C)C [628-024]	–	1.39%	11.8%	22.64%	30.25%	−1.24%
CCNC(=O)[C@@H](Cc1ccc(F)cc1)NC(=O)Nc1cc(C(C)(C)C)ccc1C(C)(C)C [628-023]	–	7.84%	32.04%	46.84%	41.79%	−0.46%
CC(C)(C)c1ccc(C(C)(C)C)c(NC(=O)N[C@H](Cc2ccc(Cl)cc2)C(=O)NCc2ccccc2)c1 [628-042]	–	49.17%	59.74%	68.69%	60.41%	19.16%
CCNC(=O)[C@@H](Cc1ccc2ccccc2c1)NC(=O)Nc1cc(C(C)(C)C)ccc1C(C)(C)C [628-025]	–	0.65%	2.33%	7.96%	22.61%	0.42%
CC(C)(C)c1ccc(C(C)(C)C)c(NC(=O)N[C@@H](C(=O)NCc2ccc3ccccc3c2)c2ccccc2)c1 [628-056]	–	14.7%	28.6%	35.6%	37.1%	4.2%
